Laboratory results taken from patent US10513519B2, “Solid forms of (1S,4S)-4-(2-(((3S,4R)-3-fluorotetrahydro-2H-pyran-4-yl)amino)-8-((2,4,6-trichlorophenyl)amino)-9H-purin-9-yl)-1-methylcyclohexane-1-carboxamide and methods of their use” (Signal Pharmaceuticals, LLC, priority 2016, dated 2019).

Experiments:
[1] = Dynamic vapor sorption (hygroscopicity); format: physicochemical
Protocol: Dynamic vapor sorption (DVS) was measured using DVS advantage (Surface Measurement Systems Ltd). The samples were tested under isotherm (25° C.) at a targeted RH of 0 to 95% full cycle in step mode. For an isotherm test, the chamber temperature was maintained by a water bath at constant 25.0±1.0° C. The relative humidity in the sample chamber was generated by combining different flows of wet and dry nitrogen with variable flow rates. The analysis was performed in 10% RH increments. Sampling rate was 1 sec save data rate is 20 sec. The dm/dt (%) value was set at 0.001 with a dm/dt window of 5 min., a minimum stability duration time of 10 min, and a maximum stage time of 180 min. The sample's equilibrium weight corresponding to each RH was recorded. A sorption isotherm was obtained by plotting equilibrium moisture content versus RH.
Hygroscopicity was determined on a Surface Measurement Systems DVS. A sample size of 5-20 mg was loaded into the DVS instrument sample pan and the sample was analyzed on a DVS automated sorption analyzer at room temperature. The relative humidity was increased from 0% to 90% RH at 10% RH step, then decreased in a similar manner to accomplish a full adsorption/desorption cycle.

[2] = tested on: LOX-IMVI xenograft; test: LOX-IMVI subcutaneous melanoma xenograft model; format: in vivo, SCID mice
Protocol: For xenograft model studies human cancer cell lines were injected into SCID (severe combined immunodeficiency) mice. Cancer cell lines were propagated in culture in vitro. Tumor bearing animals were generated by injecting precisely determined numbers of cells into mice. Following inoculation of animals, the tumors were allowed to grow to a certain size prior to randomization. The mice bearing xenograft tumors ranging between pre-determined sizes were pooled together and randomized into various treatment groups. A typical efficacy study design involved administering one or more compounds at various dose levels to tumor-bearing mice. Additionally, reference chemotherapeutic agents (positive control) and negative controls were similarly administered and maintained. Tumor measurements and body weights were taken over the course of the study.
Mice were anesthetized with inhaled isoflurane and then inoculated with LOX-IMVI tumor cells subcutaneously above the right hind leg with 0.1 mL of a single cell suspension in PBS using a sterile 1 mL syringe fitted with a 26-gauge needle. Following inoculation of the animals, tumors were allowed to grow to approximately 75-125 mm^3 or in some cases 250-400 mm^3 prior to randomization of the mice. The tumor of each animal was measured and animals with tumors in the appropriate range were included in the study. Animals from the study pool were then distributed randomly into various cages and the cages were randomly assigned to vehicle, positive control, or test article groups. All of the mice were tagged with metal ear tags on the right ear. A typical group consisted of 8-10 animals. For a typical xenograft study, SCID mice bearing tumors were randomized and dosed with compounds ranging from, for example, 100 mg/kg to 0.1 mg/kg with different dose scheduling, including, but not limited to, qd, q2d, q3d, q5d, q7d and bid. The mice were dosed for 1-4 weeks. Tumors were measured twice a week using calipers and tumor volumes were calculated using the formula of W^2×L/2.
The purpose of this study was to confirm the efficacy of Compound 1 in the LOX-IMVI melanoma xenograft model.
In a separate experiment, Compound 1 was administered orally, QD for 8 days at 0.2, 1, 5, 10, and 15 mg/kg.

SMILES: C[C@]1(C(N)=O)CC[C@@H](n2c(Nc3c(Cl)cc(Cl)cc3Cl)nc3cnc(N[C@@H]4CCOC[C@H]4F)nc32)CC1 [Compound 1, cis-4-[2-{[(3S,4R)-3-fluorooxan-4-yl]amino}-8-(2,4,6-trichloroanilino)-9H-purin-9-yl]-1-methylcyclohexane-1-carboxamide]
- hygroscopicity with respect to monohydrate ([1]; 0-95% RH): < 4.3%
- hygroscopicity (in words) ([1]; DVS): slightly hygroscopic
- remaining water released ([1]; from 5% RH to dry): ~2.8 % wt
- additional moisture sorption ([1]; from 25 to 95% RH): ~1.7%
- loss of water content during desorption cycle ([1]; from 95 down to 5% RH): ~1.5%
- tumor regression ([2]; 10 and 15 mg/kg, orally, QD for 8 days): Tumor regression was observed
- animals with tumor regression ([2]; 15 and 30 mg/kg, both dose levels): 9 out of 9
- animals tumor free at study end ([2]; 15 and 30 mg/kg, each group): 1 out of 9
- tumor volume compared to the vehicle control ([2]; 15 and 30 mg/kg, p<0.001 for both dose levels): significant tumor volume reduction
- antitumor activity ([2]; orally, QD for 8 days at 0.2, 1, 5, 10, and 15 mg/kg): Dose-dependent antitumor activity
